From patent US8299048B2, “Hexahydrocyclopentyl[f]indazole sulfonamides and derivatives thereof as selective glucocorticoid receptor modulators” (Merck Sharp & Dohme Corp., priority 2008, dated 2012)

How the values were obtained:
human GR [1] = target: T1, human GR (Homo sapiens, UniProt P04150); assay: Trans-Activation Modulation of Glucocorticoid Receptor (GRAMMER), MMTV-LUC reporter, agonist mode; assay type: cell-based; parameters: endogenous in cells; conditions: for Emax: A549, A549 cells, read-out: Transactivation A549 Cells GRAMMER Emax; for EC50: inflection point, read-out: Transactivation A549 Cells GRAMMER IP
T1 sequence (P04150 1-777): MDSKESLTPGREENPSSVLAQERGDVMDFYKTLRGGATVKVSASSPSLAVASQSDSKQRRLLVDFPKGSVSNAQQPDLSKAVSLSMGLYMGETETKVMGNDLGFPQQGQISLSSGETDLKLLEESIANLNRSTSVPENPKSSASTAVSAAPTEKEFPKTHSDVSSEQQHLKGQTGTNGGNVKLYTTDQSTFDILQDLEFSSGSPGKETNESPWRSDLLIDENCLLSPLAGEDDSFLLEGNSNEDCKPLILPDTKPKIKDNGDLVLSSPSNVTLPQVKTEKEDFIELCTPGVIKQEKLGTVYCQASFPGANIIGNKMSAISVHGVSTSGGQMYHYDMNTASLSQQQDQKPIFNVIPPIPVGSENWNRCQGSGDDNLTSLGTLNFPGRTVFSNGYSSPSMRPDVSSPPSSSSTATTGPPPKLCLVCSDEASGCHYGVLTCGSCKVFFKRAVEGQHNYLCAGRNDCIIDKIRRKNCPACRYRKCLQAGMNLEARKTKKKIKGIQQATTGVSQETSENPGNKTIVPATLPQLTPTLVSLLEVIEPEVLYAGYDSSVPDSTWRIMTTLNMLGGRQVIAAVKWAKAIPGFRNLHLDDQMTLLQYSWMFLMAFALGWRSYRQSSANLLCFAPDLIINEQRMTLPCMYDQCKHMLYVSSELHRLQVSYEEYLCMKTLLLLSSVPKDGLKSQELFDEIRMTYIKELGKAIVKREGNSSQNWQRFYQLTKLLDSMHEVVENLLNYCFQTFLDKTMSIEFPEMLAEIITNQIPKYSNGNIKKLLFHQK
Outline: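 Readout is luciferase from a modified MMTV LTR promoter after 24 h compound exposure alongside 10 nM dexamethasone (100% activity reference), DMSO ≤1%.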

human GR [2] = target: T1, human GR; assay: Transrepression Assay (GITAR), TNFα-β-lactamase reporter in U937 cells; assay type: cell-based; parameters: U937 cells contain an endogenous glucocorticoid receptor (GR); endogenous in cells; host or cells: U937 cells stably transfected with the TNF-alpha promoter/beta-lactamase reporter; conditions: for EC50: inflection point, read-out: Transrepression U937 Cells GITAR IP; for GITAR > GRAMM % SEP: GITAR Emax minus GRAMMER Emax
Outline: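 Read-out: CCF2-AM β-lactamase signal after 70–90 min loading at room temperature. U937 TNF-α-promoter reporter cells (endogenous GR), compound 30–45 min at 37 °C, then PMA 5 ng/ml + LPS 100 ng/ml final, ~18 hr. Normalised to 100 nM dexamethasone = 100%.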

[3] = U-937, U937 cells, maximum activity, read-out: Transrepression U937 Cells GITAR Emax
[4] = U-937, activity repressed by 100 nM dexamethasone alone set as 100%, read-out: maximal activity in the transrepression (GITAR) assay

Row | Compound | Emax (human GR [1]; maximum activity) | EC50 (human GR [1]; A549 cells) | EC50 (human GR [2]; U937 cells) | Emax (human GR [2]; [3]) | Emax (human GR [2]; [4]) | GITAR > GRAMM % SEP (human GR [2]) | Transactivation A549 Cells GRAMMER Emax (human GR [1]; A549 cells, maximum activity) | Transrepression U937 Cells GITAR Emax (human GR [2]; U937 cells, maximum activity)
1 | C[C@]12Cc3cnn(-c4ccc(F)cc4)c3C=C1CC[C@@H]2CN(CCO)S(=O)(=O)Cc1cccc(C(F)(F)F)c1 [Example 63, N-{[(4αR,5S)-1-(4-fluorophenyl)-4α-methyl-1,4,4α,5,6,7-hexahydrocyclopenta[f]indazol-5-yl]methyl}-N-(2-hydroxyethyl)-1-[3-(trifluoromethyl)phenyl]methanesulfonamide] | 2.1% | 1410 nM | 404 nM | 12% | > 5% | 9.9% |  | 
2 | C[C@]12Cc3cnn(-c4ccc(F)cc4)c3C=C1CC[C@@H]2CN(CCc1ccccn1)S(=O)(=O)Cc1cccnc1 [Example 1, N-{[(4αR,5S)-1-(4-Fluorophenyl)-4α-methyl-1,4,4α,5,6,7-hexahydrocyclopenta[f]indazol-5-yl]methyl}-1-pyridin-3-yl-N-(2-pyridin-2-ylethyl)methanesulfonamide] |  | 351 nM | 407 nM |  |  | 41.9% | 31.6% | 73.5%
3 | Cc1ccc(S(=O)(=O)N(CCO)C[C@H]2CCC3=Cc4c(cnn4-c4ccc(F)cc4)C[C@@]32C)s1 [Example 64, N-{[(4αR,5S)-1-(4-fluorophenyl)-4α-methyl-1,4,4α,5,6,7-hexahydrocyclopenta[f]indazol-5-yl]methyl}-N-(2-hydroxyethyl)-5-methylthiophene-2-sulfonamide] | 7.9% | 622 nM | 731 nM | 29% | > 5% | 21.1% |  | 
4 | CNC(=O)Nc1ccc(S(=O)(=O)N(CCO)C[C@H]2CCC3=Cc4c(cnn4-c4ccc(F)cc4)C[C@@]32C)c(Cl)c1 [Example 76, 2-chloro-N-{[(4αR,5S)-1-(4-fluorophenyl)-4α-methyl-1,4,4α,5,6,7-hexahydrocyclopenta[f]indazol-5-yl]methyl}-N-(2-hydroxyethyl)-4-{[(methylamino)carbonyl]amino}-benzenesulfonamide] | 3.5% | 1960 nM | 2110 nM | 13% | > 5% | 9.5% |  | 

Now from value to compound, other results behind:

Row | Emax (human GR [1]; maximum activity) | EC50 (human GR [1]; A549 cells) | EC50 (human GR [2]; U937 cells) | Emax (human GR [2]; [3]) | Emax (human GR [2]; [4]) | GITAR > GRAMM % SEP (human GR [2]) | Compound | Transactivation A549 Cells GRAMMER Emax (human GR [1]; A549 cells, maximum activity) | Transrepression U937 Cells GITAR Emax (human GR [2]; U937 cells, maximum activity)
5 | 39.3% | 368 nM | 407 nM | 65.1% | > 5% |  | C=CCN(C[C@H]1CCC2=Cc3c(cnn3-c3ccc(F)cc3)C[C@@]21C)S(=O)(=O)c1ccccc1F [Example 3, N-allyl-2-fluoro-N-{[(4αR,5S)-1-(4-fluorophenyl)-4α-methyl-1,4,4α,5,6,7-hexahydrocyclopenta[f]indazol-5-yl]methyl}benzenesulfonamide] |  | 
6 | 68.2% | 68.6 nM | 262 nM | 80.6% | > 5% | 12.4% | C[C@]12Cc3cnn(-c4ccc(F)cc4)c3C=C1CC[C@@H]2CN(CCc1ccccc1F)S(=O)(=O)c1ccccc1F [Example 86, 2-fluoro-N-[2-(2-fluorophenyl)ethyl]-N-{[(4αR,5S)-1-(4-fluorophenyl)-4α-methyl-1,4,4α,5,6,7-hexahydrocyclopenta[f]indazol-5-yl]methyl}benzenesulfonamide] |  | 
7 | 1.6% | 73.7 nM | 4230 nM | 38.8% | > 5% | 37.1% | CC(=O)Nc1ccc(S(=O)(=O)N(CCO)C[C@H]2CCC3=Cc4c(cnn4-c4ccc(F)cc4)C[C@@]32C)cc1 [Example 85, N-(4-{[{[(4αR,5S)-1-(4-fluorophenyl)-4α-methyl-1,4,4α,5,6,7-hexahydrocyclopenta[f]indazol-5-yl]methyl}(2-hydroxyethyl)amino]sulfonyl}phenyl)acetamide] |  | 
